Source: paper PMC5155152, “A diverse intrinsic antibiotic resistome from a cave bacterium” (Nature Communications, 2016)
Converted amounts (≈) assume the structure as drawn. Numbered stars: 1 amine (or outer) side, 2 acyl side, 3 side chain; on linkers, the order of the positions; unused ones are H or OH. Bridge positions count the residues as written; N and C are the ends. Square brackets hold non-standard residues; d marks the D form. Peptide text beside a SMILES is read from it. * marks the point of attachment. Ileψ(thiazoline)Cys = CC[C@H](C)[C@H](N)C1=N[C@H](C(=O)*)CS1; NMePhe(4-NMe2) = CN[C@@H](Cc1ccc(N(C)C)cc1)C(=O)O; X1 = O=C([C@@H]1CC=C(CN2CCOCC2)CN1[*:1])[*:2]; Picolinoyl(3-OH) = O=C(c1ncccc1O)*; Phg = N[C@H](C(=O)O)c1ccccc1; dOrn = NCCC[C@@H](N)C(=O)O; dAbu = CC[C@@H](N)C(=O)O

Test system: T1, AAC(6′)-34
T1 construct: recombinant in E. coli BL21(DE3), pET vector, Ni-NTA purified
Assay: CoA liberation with DTDP, steady-state kinetics
Format: biochemical, Paenibacillus sp. LC231
Conditions: 500 μM acetyl-CoA, 25 mM MES pH 6.0, 1 mM EDTA, 25 °C

Compound	Km [µM]
CN[C@@H]1[C@@H](O)[C@@H](O[C@@H]2[C@@H](O)[C@H](O[C@H]3OC(CN)=CC[C@H]3N)[C@@H](N)C[C@H]2N)OC[C@]1(C)O [sisomicin]	4.7 ± 0.4

Test system: T2, MphI
T2 construct: recombinant in E. coli BL21(DE3), pET vector, Ni-NTA purified
Assay: steady-state kinetics
Format: biochemical, Paenibacillus sp. LC231
Conditions: 400 μM tylosin, 50 mM HEPES pH 7.5, 40 mM KCl, 10 mM MgCl2, 25 °C

Compound	Km [µM]
Nc1nc2c(ncn2[C@@H]2O[C@H](COP(=O)(O)OP(=O)(O)OP(=O)(O)O)[C@@H](O)[C@H]2O)c(=O)[nH]1 [GTP]	10 ± 1.8

Test system: T3, Paenibacillus sp. LC231
T3 construct: LC231
Assay: microbe, parasite or virus in culture
Design: antibacterial susceptibility, minimal inhibitory concentration (quantitative antibiogram)
Conditions: not given
Excerpt: (§1) We generated a quantitative antibiogram for Paenibacillus sp. LC231 for 40 different antibiotics that target diverse cellular processes and compared it with the susceptibility of a surface strain of Paenibacillus lautus ATCC 43898, the pathogen Staphylococcus aureus RN4220 and the environmental bacterium Kocuria rhizophila (formerly identified as Micrococcus luteus) (Supplementary Tables 1 and 2). […] Further experiments in this study investigate the molecular basis of resistance and not the contribution of each genetic determinant to the resistance phenotype of Paenibacillus sp. LC231. […] We focused our investigation on Paenibacillus sp. LC231 and determined that in addition to resistance to 14 classes of antibiotic, it inactivates 7 distinct classes.

Compound	MIC [µg/mL]
CN[C@@H]1[C@H](O[C@H]2[C@H](O[C@H]3[C@H](O)[C@@H](O)[C@H](N=C(N)N)[C@@H](O)[C@@H]3N=C(N)N)O[C@@H](C)[C@]2(O)C=O)O[C@@H](CO)[C@H](O)[C@H]1O [Streptomycin]	≥ 128
CC(=O)O[C@H]1C[C@@]2(C)[C@@H](C[C@@H](O)[C@H]3[C@@]4(C)CC[C@@H](O)[C@@H](C)[C@@H]4CC[C@@]32C)/C1=C(\CCC=C(C)C)C(=O)O [Fusidic acid]	8 (≈ 15.5 µM)
CN[C@@H]1[C@H](O)[C@H](NC)[C@H]2O[C@@]3(O)C(=O)C[C@@H](C)O[C@H]3O[C@@H]2[C@H]1O [Spectinomycin]	≥ 128
NC[C@H]1O[C@H](O[C@H]2[C@H](O)[C@@H](O[C@H]3O[C@H](CO)[C@@H](O)[C@H](N)[C@H]3O)[C@H](N)C[C@@H]2N)[C@H](N)C[C@@H]1O [Tobramycin]	32 (≈ 68.4 µM)
CN(C)[C@@H]1C(O)=C(C(N)=O)C(=O)[C@@]2(O)C(O)=C3C(=O)c4c(O)cccc4[C@@](C)(O)[C@H]3C[C@@H]12 [Tetracycline]	≥ 128
CC[C@H]1OC(=O)[C@H](C)[C@@H](O[C@H]2C[C@@](C)(OC)[C@@H](O)[C@H](C)O2)[C@H](C)[C@@H](O[C@@H]2O[C@H](C)C[C@H](N(C)C)[C@H]2O)[C@](C)(O)C[C@@H](C)CN(C)[C@H](C)[C@@H](O)[C@]1(C)O [Azithromycin]	16 (≈ 21.4 µM)
CC1=C\[C@@H](O)C[C@@H](F)Cc2nc(co2)C(=O)N2CCC[C@@H]2C(=O)O[C@H](C(C)C)[C@H](C)/C=C/C(=O)NC\C=C\1 [Flopristin]	32 (≈ 60.2 µM)
CC[C@H]1NC(=O)[C@@H](NC(=O)c2ncccc2O)[C@@H](C)OC(=O)[C@H](c2ccccc2)NC(=O)[C@@H]2CC=C(CN3CCOCC3)CN2C(=O)[C@H](Cc2ccc(N(C)C)cc2)N(C)C(=O)[C@@H]2CCCN2C1=O [linopristin] ({Picolinoyl(3-OH)}-T[dAbu]P[NMePhe(4-NMe2)][X1][Phg]; ester 1-C)	64 (≈ 67.4 µM)
NC[C@H]1O[C@H](O[C@H]2[C@H](O)[C@@H](O[C@H]3O[C@H](CO)[C@@H](O)[C@H](N)[C@H]3O)[C@H](N)C[C@@H]2N)[C@H](O)[C@@H](O)[C@@H]1O [Kanamycin]	≥ 128
CCn1cc(C(=O)O)c(=O)c2ccc(C)nc21 [Nalidixic acid]	4 (≈ 17.2 µM)
NCC[C@H](O)C(=O)N[C@@H]1C[C@H](N)[C@@H](O[C@H]2O[C@H](CN)[C@@H](O)[C@H](O)[C@H]2O)[C@H](O)[C@H]1O[C@H]1O[C@H](CO)[C@@H](O)[C@H](N)[C@H]1O [Amikacin]	16 (≈ 27.3 µM)
CN[C@@H]1[C@@H](O[C@H]2O[C@H](CO)[C@@H](N)[C@H](O)[C@H]2O)O[C@H]2C[C@@H](N)[C@@H](O[C@H]3[C@H](O)[C@@H](O)[C@H](N)C[C@@H]3N)O[C@@H]2[C@@H]1O [Apramycin]	8 (≈ 14.8 µM)
N=C1NCCC([C@@H]2NC(=O)/C(=C/NC(N)=O)NC(=O)[C@H](CNC(=O)CC(N)CCCN)NC(=O)[C@H](CO)NC(=O)[C@@H](N)CNC2=O)N1 (mixture of isomers) [capreomycin]	32
CCC[C@@H]1C[C@@H](C(=O)N[C@@H]([C@H]2O[C@H](SC)[C@H](O)[C@@H](O)[C@H]2O)[C@H](C)Cl)N(C)C1 [Clindamycin]	16 (≈ 37.6 µM)
C=C[C@]1(C)C[C@@H](OC(=O)CSCCN(CC)CC)[C@]2(C)[C@H](C)CC[C@]3(CCC(=O)[C@H]32)[C@@H](C)[C@@H]1O [Tiamulin]	32 (≈ 64.8 µM)
C[C@@H]1O[C@@H]1P(=O)(O)O [Fosfomycin]	≥ 128
CC1=C(C(=O)O)N2C(=O)[C@@H](NC(=O)[C@H](N)c3ccccc3)[C@H]2SC1 [Cephalexin]	≥ 128
C/C(=C\C(=O)OCCCCCCCCC(=O)O)C[C@@H]1OC[C@H](C[C@@H]2O[C@H]2[C@@H](C)[C@H](C)O)[C@@H](O)[C@H]1O [Mupirocin]	≥ 100
CC1(C)S[C@@H]2[C@H](NC(=O)[C@H](N)c3ccccc3)C(=O)N2[C@H]1C(=O)O [Ampicillin]	8 (≈ 22.9 µM)
O=C(N[C@H](CO)[C@H](O)c1ccc([N+](=O)[O-])cc1)C(Cl)Cl [chloramphenicol]	32 (≈ 99 µM)
CO/N=C(\C(=O)N[C@@H]1C(=O)N2C(C(=O)O)=C(COC(C)=O)CS[C@H]12)c1csc(N)n1 [Cefotaxime]	2 (≈ 4.39 µM)
CC[C@H]1OC(=O)C[C@@H](O)[C@H](C)[C@@H](O[C@@H]2O[C@H](C)[C@@H](O[C@H]3C[C@@](C)(O)[C@@H](O)[C@H](C)O3)[C@H](N(C)C)[C@H]2O)[C@@H](CC=O)C[C@@H](C)C(=O)/C=C/C(C)=C/[C@@H]1CO[C@@H]1O[C@H](C)[C@@H](O)[C@@H](OC)[C@H]1OC [tylosin]	16 (≈ 17.5 µM)

Second part, the molecule after the results:

MIC [µg/mL]	Compound
2 (≈ 3.25 µM)	NC[C@@H]1O[C@H](O[C@H]2[C@@H](O)[C@H](O[C@@H]3[C@@H](O)[C@H](N)C[C@H](N)[C@H]3O[C@H]3O[C@H](CN)[C@@H](O)[C@H](O)[C@H]3N)O[C@@H]2CO)[C@H](N)[C@@H](O)[C@@H]1O [Neomycin]
2 (≈ 2.73 µM)	CC[C@H]1OC(=O)[C@H](C)[C@@H](O[C@H]2C[C@@](C)(OC)[C@@H](O)[C@H](C)O2)[C@H](C)[C@@H](O[C@@H]2O[C@H](C)C[C@H](N(C)C)[C@H]2O)[C@](C)(O)C[C@@H](C)C(=O)[C@H](C)[C@@H](O)[C@]1(C)O [Erythromycin]
0.25 (≈ 0.692 µM)	C[C@H]1COc2c(N3CCN(C)CC3)c(F)cc3c(=O)c(C(=O)O)cn1c23 [Levofloxacin]
2 (≈ 5.22 µM)	C[C@@H](O)[C@H]1C(=O)N2C(C(=O)O)=C(S[C@@H]3CN[C@H](C(=O)N(C)C)C3)[C@H](C)[C@H]12 [Meropenem]
0.25 (≈ 0.334 µM)	CC[C@H]1OC(=O)[C@H](C)[C@@H](O[C@H]2C[C@@](C)(OC)[C@@H](O)[C@H](C)O2)[C@H](C)[C@@H](O[C@@H]2O[C@H](C)C[C@H](N(C)C)[C@H]2O)[C@](C)(OC)C[C@@H](C)C(=O)[C@H](C)[C@@H](O)[C@]1(C)O [Clarithromycin]
2 (≈ 2.46 µM)	CC[C@H]1OC(=O)[C@H](C)C(=O)[C@H](C)[C@@H](O[C@@H]2O[C@H](C)C[C@H](N(C)C)[C@H]2O)[C@](C)(OC)C[C@@H](C)C(=O)[C@H](C)[C@H]2N(CCCCn3cnc(-c4cccnc4)c3)C(=O)O[C@]12C [Telithromycin]
2 (≈ 4.19 µM)	CNC(C)[C@@H]1CC[C@@H](N)[C@@H](O[C@H]2[C@H](O)[C@@H](O[C@H]3OC[C@](C)(O)[C@H](NC)[C@H]3O)[C@H](N)C[C@@H]2N)O1 (stereo partly shown) [Gentamicin]
1 (≈ 1.22 µM)	CO[C@H]1/C=C/O[C@@]2(C)Oc3c(C)c(O)c4c(O)c(c(/C=N/N5CCN(C)CC5)c(O)c4c3C2=O)NC(=O)/C(C)=C\C=C\[C@H](C)[C@H](O)[C@@H](C)[C@@H](O)[C@@H](C)[C@H](OC(C)=O)[C@@H]1C [rifampin]
0.25 (≈ 0.408 µM)	CO[C@@H]1[C@@H](OC(N)=O)[C@@H](O)[C@H](Oc2ccc3c(O)c(NC(=O)c4ccc(O)c(CC=C(C)C)c4)c(=O)oc3c2C)OC1(C)C [Novobiocin]
1 (≈ 2.96 µM)	CC(=O)NC[C@H]1CN(c2ccc(N3CCOCC3)c(F)c2)C(=O)O1 [Linezolid]
0.25 (≈ 0.754 µM)	O=C(O)c1cn(C2CC2)c2cc(N3CCNCC3)c(F)cc2c1=O [Ciprofloxacin]
1 (≈ 0.69 µM)	CN[C@H](CC(C)C)C(=O)N[C@H]1C(=O)N[C@@H](CC(N)=O)C(=O)N[C@H]2C(=O)N[C@H]3C(=O)N[C@H](C(=O)N[C@H](C(=O)O)c4cc(O)cc(O)c4-c4cc3ccc4O)[C@H](O)c3ccc(c(Cl)c3)Oc3cc2cc(c3O[C@@H]2O[C@H](CO)[C@@H](O)[C@H](O)[C@H]2O[C@H]2C[C@](C)(N)[C@H](O)[C@H](C)O2)Oc2ccc(cc2Cl)[C@H]1O [Vancomycin]

Test system: T3, Paenibacillus sp. LC231
Assay: microbe, parasite or virus in culture
Design: broth microdilution MIC, growth inhibition of Paenibacillus sp. LC231
Conditions: not given
Remark: another data set of the same source
Excerpt: as §1

Compound	MIC [µg/mL]
CC[C@H](C)[C@H](N)C1=N[C@H](C(=O)N[C@@H](CC(C)C)C(=O)N[C@H](CCC(=O)O)C(=O)N[C@H](C(=O)N[C@H]2CCCCNC(=O)[C@H](CC(N)=O)NC(=O)[C@@H](CC(=O)O)NC(=O)[C@H](Cc3cnc[nH]3)NC(=O)[C@@H](Cc3ccccc3)NC(=O)[C@H]([C@@H](C)CC)NC(=O)[C@@H](CCCN)NC2=O)[C@@H](C)CC)CS1 [Bacitracin] ({Ileψ(thiazoline)Cys}-L[dE]IK[dOrn]I[dF]H[dD]N; lactam 4-C)	≥ 128
C[C@H]1O[C@H](O[C@H]2[C@H](O)[C@@H](O)[C@@H](O)[C@H](O)[C@@H]2O)[C@@H](N)C[C@@H]1N=C(N)C(=O)O [kasugamycin]	≥ 128
CCCCCCCCCC(=O)N[C@@H](Cc1c[nH]c2ccccc12)C(=O)N[C@H](CC(N)=O)C(=O)N[C@@H](CC(=O)O)C(=O)N[C@@H]1C(=O)NCC(=O)N[C@@H](CCCN)C(=O)N[C@@H](CC(=O)O)C(=O)N[C@H](C)C(=O)N[C@@H](CC(=O)O)C(=O)NCC(=O)N[C@H](CO)C(=O)N[C@@H]([C@H](C)CC(=O)O)C(=O)N[C@@H](CC(=O)c2ccccc2N)C(=O)O[C@@H]1C [Daptomycin]	16 (≈ 9.87 µM)
C=C(NC(=O)C(=C)NC(=O)c1csc(C2=N[C@@H]3c4csc(n4)[C@H]4NC(=O)c5csc(n5)[C@H]([C@](C)(O)[C@@H](C)O)NC(=O)[C@H]5CSC(=N5)/C(=C/C)NC(=O)[C@H]([C@@H](C)O)NC(=O)c5csc(n5)[C@]3(CC2)NC(=O)[C@H](C)NC(=O)C(=C)NC(=O)[C@H](C)NC(=O)[C@H]([C@@H](C)CC)N[C@@H]2C=Cc3c([C@H](C)O)cc(nc3[C@H]2O)C(=O)O[C@@H]4C)n1)C(N)=O [Thiostrepton]	0.25 (≈ 0.15 µM)
